Measured values: patent publication US9550796B2, “Pyrrolopyrrolone derivatives and their use as BET inhibitors” (NOVARTIS AG, priority 2013, dated 2017)

Legend:
[1] = molecular target: BRD4 (Homo sapiens (Human), UniProt O60885); experiment: TR-FRET in-vitro binding assay for BRD4; settings: 45 nM His-Brd4(44-477), acetyl-histone H4 (AcK 5, 8, 12, 16) peptide
Procedure, shortened: (§1)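 Incubation at 30° C lasted 35 min, followed by TR-FRET measurement; each compound was tested as 8 single-point concentrations.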

[2] = molecular target: BRD2 (Homo sapiens (Human), UniProt P25440); experiment: TR-FRET in-vitro binding assay for BRD2; settings: 45 nM His-Brd2(60-472), acetyl-histone H4 (AcK 5, 8, 12, 16) peptide
Chain of BRD2 (P25440 60-472): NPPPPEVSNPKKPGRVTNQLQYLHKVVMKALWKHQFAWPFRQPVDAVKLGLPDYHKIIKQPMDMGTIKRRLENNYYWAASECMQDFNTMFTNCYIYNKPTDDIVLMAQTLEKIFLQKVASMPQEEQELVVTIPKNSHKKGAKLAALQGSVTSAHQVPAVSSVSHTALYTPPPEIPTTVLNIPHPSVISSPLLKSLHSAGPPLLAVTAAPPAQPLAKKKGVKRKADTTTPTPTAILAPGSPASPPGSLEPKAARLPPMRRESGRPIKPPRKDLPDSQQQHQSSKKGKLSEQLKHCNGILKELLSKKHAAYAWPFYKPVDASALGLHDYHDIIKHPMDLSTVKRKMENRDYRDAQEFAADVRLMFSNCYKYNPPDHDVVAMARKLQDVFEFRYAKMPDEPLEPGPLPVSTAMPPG
Procedure, shortened: as §1

[3] = molecular target: BRD3 (Homo sapiens (Human), UniProt Q15059); experiment: TR-FRET in-vitro binding assay for BRD3; settings: 45 nM His-Brd3(20-477), acetyl-histone H4 (AcK 5, 8, 12, 16) peptide
Chain of BRD3 (Q15059 20-477): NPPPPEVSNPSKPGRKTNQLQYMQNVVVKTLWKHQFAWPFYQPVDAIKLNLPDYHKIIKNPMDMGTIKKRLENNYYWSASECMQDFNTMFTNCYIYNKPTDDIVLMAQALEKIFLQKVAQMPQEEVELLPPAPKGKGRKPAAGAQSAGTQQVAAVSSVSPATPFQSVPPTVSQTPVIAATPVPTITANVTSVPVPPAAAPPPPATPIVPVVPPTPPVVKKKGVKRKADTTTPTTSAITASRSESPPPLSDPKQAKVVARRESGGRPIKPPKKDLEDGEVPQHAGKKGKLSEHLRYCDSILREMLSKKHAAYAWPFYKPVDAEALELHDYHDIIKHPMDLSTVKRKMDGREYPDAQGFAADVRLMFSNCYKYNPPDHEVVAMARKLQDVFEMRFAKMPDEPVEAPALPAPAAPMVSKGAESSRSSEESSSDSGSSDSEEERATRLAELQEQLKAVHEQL
Procedure, shortened: as §1

[4] = molecular target: CREBBP (Homo sapiens (Human), UniProt Q92793); experiment: AlphaScreen in-vitro binding assay for CREBBP; settings: 324 nM His-CREBBP (1081-1197), acetyl-histone H4 (AcK 5, 8, 12) peptide
Chain of CREBBP (Q92793 1081-1197): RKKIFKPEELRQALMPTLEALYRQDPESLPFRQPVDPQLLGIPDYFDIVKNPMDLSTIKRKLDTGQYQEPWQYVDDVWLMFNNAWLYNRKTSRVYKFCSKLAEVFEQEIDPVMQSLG
Procedure, shortened: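 IC50 values were derived by non-linear regression of percent inhibition across 8 compound concentrations. Protein was His-tagged CREBBP bromodomain (1081-1197), peptide acetyl-histone H4 (AcK 5, 8, 12), in HEPES pH 7.5 buffer. Read-out was AlphaScreen with Ni-chelate acceptor and streptavidin donor beads, 35 min at 30° C then 60 min at RT.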

[5] = tested on: MV-4-11; experiment: Cell growth inhibition assay (CellTiter-Glo), MV-4-11; type: cell-based, human; settings: MV-4-11 cells, 4 days; for GI50: Homo sapiens, MV4-11, 96 h, half-maximal growth inhibition; for MV-4-11 TGI: total growth inhibition
Procedure, shortened: (§2)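 Seed cells in their own media; add compound as 3-fold dilutions from 10 μM (0.1% DMSO final). Incubate 4 days at 37 °C, 5% CO2, then add CTG and read luminescence. Subtract no-cell background, correct to a day 0 plate, and fit IC50 and TGI.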

[6] = tested on: THP-1; experiment: Cell growth inhibition assay (CellTiter-Glo), THP-1; type: cell-based, human; settings: THP-1 cells, 4 days; for GI50: Homo sapiens, 96 h, half-maximal growth inhibition; for THP-1 TGI: total growth inhibition
Procedure, shortened: as §2

[7] = tested on: K-562; experiment: Cell growth inhibition assay (CellTiter-Glo), K-562; type: cell-based, human; settings: K-562 cells, 4 days; for GI50: Homo sapiens, K562, 96 h, half-maximal growth inhibition; for K-562 TGI: total growth inhibition
Procedure, shortened: as §2

Row | Compound | IC50 [1] [nM] | IC50 [2] [nM] | IC50 [3] [nM] | IC50 [4] [nM] | GI50 [5] [nM] | MV-4-11 TGI [5] [nM] | GI50 [6] [nM] | THP-1 TGI [6] [nM] | GI50 [7] [nM] | K-562 TGI [7] [nM]
1 | Cc1cc(N2C(=O)c3cc[nH]c3C2c2ccc(Cl)cc2)cn2c(C)nnc12 (stereo not drawn) [Example 21, 6-(4-chlorophenyl)-5-(3,8-dimethyl-[1,2,4]triazolo[4,3-a]pyridin-6-yl)-5,6-dihydropyrrolo[3,4-b]pyrrol-4(1H)-one] | 47 | 82 | 53 | 5100 | 45.2 | 81.05 | 63.3 | 178 | 246 | >10000
2 | CCOC(=O)n1ccc2c1C(c1ccc(Cl)cc1)N(c1cc(C)c3nnc(C)n3c1)C2=O (stereo not drawn) [Example 22, Ethyl 6-(4-chlorophenyl)-5-(3,8-dimethyl-[1,2,4]triazolo[4,3-a]pyridin-6-yl)-4-oxo-5,6-dihydropyrrolo[3,4-b]pyrrole-1(4H)-carboxylate] | 25 | 38 | 26 | 12500 | 46.8 | 86.15 | 60.1 | 130 | 226 | >10000
3 | CNC(=O)n1ccc2c1C(c1ccc(Cl)cc1)N(c1cc(C)c3nnc(C)n3c1)C2=O (stereo not drawn) [Example 23, 6-(4-chlorophenyl)-5-(3,8-dimethyl-[1,2,4]triazolo[4,3-a]pyridin-6-yl)-N-methyl-4-oxo-5,6-dihydropyrrolo[3,4-b]pyrrole-1(4H)-carboxamide] | 52 | 85 | 39 | 4200 | 29 | 54.7 | 39.2 | 101.7 | 206 | >10000
4 | Cc1cc(N2C(=O)c3ccn(C(=O)N(C)C)c3C2c2ccc(Cl)cc2)cn2c(C)nnc12 (stereo not drawn) [Example 24, 6-(4-chlorophenyl)-5-(3,8-dimethyl-[1,2,4]triazolo[4,3-a]pyridin-6-yl)-N,N-dimethyl-4-oxo-5,6-dihydropyrrolo[3,4-b]pyrrole-1(4H)-carboxamide] | 80 | 220 | 87 | 13300 | 92.8 | 152 | 96.4 | 267.5 | 527 | >10000
5 | Cc1cc(N2C(=O)c3cc(-c4cccn(C)c4=O)[nH]c3C2c2ccc(Cl)cc2)cn2c(C)nnc12 (stereo not drawn) [Example 25, 6-(4-chlorophenyl)-5-(3,8-dimethyl-[1,2,4]triazolo[4,3-a]pyridin-6-yl)-2-(1-methyl-2-oxo-1,2-dihydropyridin-3-yl)-5,6-dihydropyrrolo[3,4-b]pyrrol-4(1H)-one] | 17 | 38 | 23 | 4400 | 36.8 | 58.15 | 39.2 | 94.9 | 156 | >10000
6 | Cc1cc(N2C(=O)c3cc(-c4cccnc4O)[nH]c3C2c2ccc(Cl)cc2)cn2c(C)nnc12 (stereo not drawn) [Example 26, 6-(4-chlorophenyl)-5-(3,8-dimethyl-[1,2,4]triazolo[4,3-a]pyridin-6-yl)-2-(2-hydroxypyridin-3-yl)-5,6-dihydropyrrolo[3,4-b]pyrrol-4(1H)-one] | 60 | 78 | 52 | 4000 | 70 | 118.5 | 136 | 340 | 839 | >10000
7 | Cc1cn(C)c2c1C(=O)N(c1cc(C)c3nnn(C)c3c1)C2c1ccc(Cl)cc1 (stereo not drawn) [Example 28, 6-(4-chlorophenyl)-5-(1,4-dimethyl-1H-benzo[d][1,2,3]triazol-6-yl)-1,3-dimethyl-5,6-dihydropyrrolo[3,4-b]pyrrol-4(1H)-one] | 16 | 20 | 21 | 1900 | 12.8 | 26.35 | 19.2 | 38.15 | 55.6 | >10000
8 | COc1ncccc1-c1cc2c(n1C)C(c1ccc(Cl)cc1)N(c1cc(C)c3nnc(C)n3c1)C2=O (stereo not drawn) [Example 30, 6-(4-chlorophenyl)-5-(3,8-dimethyl-[1,2,4]triazolo[4,3-a]pyridin-6-yl)-2-(2-methoxypyridin-3-yl)-1-methyl-5,6-dihydropyrrolo[3,4-b]pyrrol-4(1H)-one] | 40 | 50 | 47 | 1300 | 11.2 | 21.3 | 19.8 | 39.05 | 57.2 | >10000
9 | Cc1cc(N2C(=O)c3cc(C4=CCOCC4)n(C)c3C2c2ccc(Cl)cc2)cn2c(C)nnc12 (stereo not drawn) [Example 31, 6-(4-chlorophenyl)-2-(3,6-dihydro-2H-pyran-4-yl)-5-(3,8-dimethyl-[1,2,4]triazolo[4,3-a]pyridin-6-yl)-1-methyl-5,6-dihydropyrrolo[3,4-b]pyrrol-4(1H)-one] | 36 | 62 | 47 | 3100 | 13.3 | 23.7 | 30.9 | 52.5 | 57.2 | >10000
10 | Cc1cn(C)c2c1C(=O)N(c1cc(C)c3nnn(C)c3n1)C2c1ccc(Cl)cc1 (stereo not drawn) [Example 32, 6-(4-chlorophenyl)-5-(3,7-dimethyl-3H-[1,2,3]triazolo[4,5-b]pyridin-5-yl)-1,3-dimethyl-5,6-dihydropyrrolo[3,4-b]pyrrol-4(1H)-one] | 110 | 160 | 100 | > 37000 | 111 | 203.5 | 174 | 343 | 430 | >10000
11 | Cc1cc(N2C(=O)c3c(C4CC4)cn(C)c3C2c2ccc(Cl)cc2)cn(C)c1=O (stereo not drawn) [Example 37, 6-(4-chlorophenyl)-3-cyclopropyl-5-(1,5-dimethyl-6-oxo-1,6-dihydropyridin-3-yl)-1-methyl-5,6-dihydropyrrolo[3,4-b]pyrrol-4(1H)-one] | 37 | 38 | 32 | 1900 | 21.3 | 38.55 | 44.9 | 98.15 | 180 | >10000
12 | COc1nccc(-c2cc3c(n2C)C(c2ccc(Cl)cc2)N(c2cc(Cl)c(=O)n(C)c2)C3=O)n1 (stereo not drawn) [Example 39, 5-(5-chloro-1-methyl-6-oxo-1,6-dihydropyridin-3-yl)-6-(4-chlorophenyl)-2-(2-methoxypyrimidin-4-yl)-1-methyl-5,6-dihydropyrrolo[3,4-b]pyrrol-4(1H)-one] | 305 | 280 | 220 | 1200 | 78.6 | 105 | 128 | 238 | 550 | >10000
